# Reference: patent US9783530B2, “Factor Xla inhibitors” (Merck Sharp & Dohme Corp., priority 2014, dated 2017)
# Biological target: purified human Factor XIa (Homo sapiens (Human), UniProt P03951)
# Test: Factor XIa Assay
# Assay type: biochemical
# Conditions: purified human Factor XIa 40 pM, substrate Z-Gly-Pro-Arg-AFC, pH 7.4; read-out: FXIa IC50
# Experimental: The effectiveness of a compound of the present invention as an inhibitor of Coagulation Factor XIa can be determined using a relevant purified serine protease, and an appropriate synthetic substrate. The rate of hydrolysis of the chromogenic or fluorogenic substrate by the relevant serine protease was measured both in the absence and presence of compounds of the present invention. Assays were conducted at room temperature or at 37° C. […] A decrease in the rate of fluorescence change in the presence of inhibitor is indicative of enzyme inhibition. Such methods are known to one skilled in the art. […]
# Factor XIa determinations were made in 50 mM HEPES buffer at pH 7.4 containing 150 mM NaCl, 5 mM CaCl2, and 0.1% PEG 8000 (polyethylene glycol; JT Baker or Fisher Scientific). Determinations were made using purified human Factor XIa at a final concentration of 40 pM (Sekisui Diagnostics) and he synthetic substrate, Z-Gly-Pro-Arg-AFC, TFA salt (Sigma #C0980) at a concentration of 100 µM.
# Activity assays were performed by diluting a stock solution of substrate at least tenfold to a final concentration ≦0.1 Km into a solution containing enzyme or enzyme equilibrated with inhibitor. Times required to achieve equilibration between enzyme and inhibitor were determined in control experiments. Initial velocities of product formation in the absence (Vo) or presence of inhibitor (Vi) were measured. Assuming competitive inhibition, and that unity is negligible compared Km/[S], [I]/e, and [I]/e (where [S], [I], and e respectively represent the total concentrations, of substrate, inhibitor and enzyme), the equilibrium constant (Ki) for dissociation of the inhibitor from the enzyme can be obtained from the dependence of Vo/Vi on [I] shown in the following equation.
# Sequence of purified human Factor XIa (P03951 388-625): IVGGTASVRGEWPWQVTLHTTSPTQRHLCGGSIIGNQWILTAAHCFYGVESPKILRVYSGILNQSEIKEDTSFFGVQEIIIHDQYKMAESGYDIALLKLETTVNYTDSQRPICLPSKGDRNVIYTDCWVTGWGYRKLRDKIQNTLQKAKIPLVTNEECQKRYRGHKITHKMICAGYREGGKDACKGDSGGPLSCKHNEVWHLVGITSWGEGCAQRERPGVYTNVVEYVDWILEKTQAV
# Sequence of purified human Factor XIa (P03951 19-387 partner): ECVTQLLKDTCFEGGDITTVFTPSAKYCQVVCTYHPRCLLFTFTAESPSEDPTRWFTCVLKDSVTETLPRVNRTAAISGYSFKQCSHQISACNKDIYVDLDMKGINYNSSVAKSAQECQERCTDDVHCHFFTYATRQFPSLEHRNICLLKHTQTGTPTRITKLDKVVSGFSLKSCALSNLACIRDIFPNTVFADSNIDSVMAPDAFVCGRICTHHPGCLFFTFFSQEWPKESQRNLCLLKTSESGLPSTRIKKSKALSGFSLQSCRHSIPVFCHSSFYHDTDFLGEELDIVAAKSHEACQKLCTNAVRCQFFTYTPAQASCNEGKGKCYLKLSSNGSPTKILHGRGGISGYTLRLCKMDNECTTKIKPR
row,Structure (SMILES),IC50 [nM]
1,"O=C(O)c1ccc(NC(=O)C(O)c2ccc(-c3cc(Cl)ccc3C3CC3)c[n+]2[O-])cc1 (racemic) [Example 11, 4-({[5-(5-chloro-2-cyclopropylphenyl)-1-oxidopyridin-2-yl](hydroxy)acetyl}amino)benzoic acid]",2510
2,"O=C(O)c1ccc(NC(=O)C(CC2CC2)c2ccc(-c3c(F)ccc(Cl)c3F)c[n+]2[O-])cc1 (racemic) [Example 33, 4-({2-[5-(3-chloro-2,6-difluorophenyl)-1-oxidopyridin-2-yl]-3-cyclopropylpropanoyl}amino)benzoic acid]",134
3,"Cc1cc(NC(=O)C(CC2CC2)c2ccc(-c3cc(Cl)ccc3-c3cnco3)c[n+]2[O-])ccc1C(=O)O (racemic) [Example 36, 4-[(2-{5-[5-chloro-2-(1,3-oxazol-5-yl)phenyl]-1-oxidopyridin-2-yl}-3-cyclopropylpropanoyl)amino]-2-methyl-benzoic acid]",94.5
4,"Cc1cc(NC(=O)C(CC2CC2)c2ccc(-c3cc(Cl)ccc3CN)c[n+]2[O-])ccc1C(=O)O (racemic) [Example 37, 4-[(2-{5-[2-(aminomethyl)-5-chlorophenyl]-1-oxidopyridin-2-yl}-3-cyclopropylpropanoyl)amino]-2-methylbenzoic acid]",228
5,"O=C(O)c1ccc(NC(=O)C(CC2CC2)c2ccc(-c3cc(Cl)ccc3-c3nccs3)c[n+]2[O-])cc1 (racemic) [Example 43, 4-[(2-{5-[5-chloro-2-(1,3-thiazol-2-yl)phenyl]-1-oxidopyridin-2-yl}-3-cyclopropylpropanoyl)amino]benzoic acid]",53.6
6,"O=C(NC12CCC(C(=O)O)(CC1)CC2)C(Cc1ccccc1)c1ccc(-c2c(F)ccc(Cl)c2F)c[n+]1[O-] (single isomer, unassigned) [Example 16, 4-({2-[5-(3-chloro-2,6-difluorophenyl)-1-oxidopyridin-2-yl]-3-phenylpropanoyl}amino) bicyclo[2.2.2]octane-1-carboxylic acid]",10000
7,"O=C(NC12CCC(C(=O)O)(CC1)CC2)C(Cc1ccccc1)c1ccc(-c2cc(Cl)ccc2-n2cnnn2)c[n+]1[O-] (single isomer, unassigned) [Example 18, 4-[(2-{5-[5-chloro-2-(1H-tetrazol-1-yl)phenyl]-1-oxidopyridin-2-yl}-3-phenylpropanoyl)amino] bicyclo[2.2.2]octane-1-carboxylic acid]",271
8,"COC(=O)NC12CCC(NC(=O)C(Cc3ccccc3)c3ccc(-c4cc(Cl)ccc4-n4cnnn4)c[n+]3[O-])(CC1)CC2 (single isomer, unassigned) [Example 20, methyl {4-[(2-{5-[5-chloro-2-(1H-tetrazol-1-yl)phenyl]-1-oxidopyridin-2-yl}-3-phenylpropanoyl)amino]bicyclo[2.2.2]oct-1-yl}carbamate]",1000
9,"N#Cc1ccc(Cl)c(F)c1-c1ccc(C(CC2CC2)C(=O)Nc2ccc(C(=O)O)cc2)[n+]([O-])c1 (single isomer, unassigned) [Example 29, 4-({2-[5-(3-chloro-6-cyano-2-fluorophenyl)-1-oxidopyridin-2-yl]-3-cyclopropylpropanoyl}amino)benzoic acid]",458
10,"O=C(O)c1ccc(NC(=O)C(CC2CC2)c2ccc(-c3cc(Cl)ccc3-n3cnnn3)c[n+]2[O-])c(Cl)c1 (single isomer, unassigned) [Example 31, 3-chloro-4-[(2-{5-[5-chloro-2-(1H-tetrazol-1-yl)phenyl]-1-oxidopyridin-2-yl}-3-cyclopropylpropanoyl)amino]benzoic acid]",752
11,"O=C(O)c1ccc(NC(=O)C(CC2CC2)c2ccc(-c3cc(Cl)ccc3-c3cnco3)c[n+]2[O-])cc1 (single isomer, unassigned) [Example 34, 4-[(2-{5-[5-chloro-2-(1,3-oxazol-5-yl)phenyl]-1-oxidopyridin-2-yl}-3-cyclopropylpropanoyl)amino]benzoic acid]",443
12,"O=C(O)c1ccc(NC(=O)C(CC2CC2)c2ccc(-c3cc(Cl)ccc3OC(F)(F)F)c[n+]2[O-])cc1 (single isomer, unassigned) [Example 38, 4-[(2-{5-[5-chloro-2-(trifluoromethoxy)phenyl]-1-oxidopyridin-2-yl}-3-cyclopropylpropanoyl)amino]benzoic acid]",1000
13,"Cc1cc(C(=O)O)ccc1NC(=O)C(CC1CC1)c1ccc(-c2cc(Cl)ccc2-n2cnnn2)c[n+]1[O-] (single isomer, unassigned) [Example 46, 4-[(2-{5-[5-chloro-2-(1H-tetrazol-1-yl)phenyl]-1-oxidopyridin-2-yl}-3-cyclopropylpropanoyl)amino]-3-methylbenzoic acid]",1000
14,"Cc1cc(NC(=O)C(CC2CC2)c2ccc(-c3cc(Cl)ccc3-n3cnnn3)c[n+]2[O-])ccc1C(=O)O (single isomer, unassigned) [Example 49, 4-[(2-{5-[5-chloro-2-(1H-tetrazol-1-yl)phenyl]-1-oxidopyridin-2-yl}-3-cyclopropylpropanoyl)amino]-2-methylbenzoic acid]",57
15,"O=C(O)c1ccc(NC(=O)[C@@H](Cc2ccccc2)c2ccc(-c3c(F)ccc(Cl)c3F)c[n+]2[O-])cc1 [Example 3, 4-({(2S)-2-[5-(3-chloro-2,6-difluorophenyl)-1-oxidopyridin-2-yl]-3-phenylpropanoyl}amino) benzoic acid]",825
16,"O=C(Cc1ccc(-c2cc(Cl)ccc2C2CC2)c[n+]1[O-])Nc1ccc(C(=O)O)cc1 [Example 10, 4-({[5-(5-chloro-2-cyclopropylphenyl)-1-oxidopyridin-2-yl]acetyl}amino) benzoic acid]",2190
17,"O=C(Cc1ccc(-c2cc(Cl)ccc2OC(F)F)c[n+]1[O-])Nc1ccc(C(=O)O)cc1 [Example 12, 4-[({5-[5-chloro-2-(difluoromethoxy)phenyl]-1-oxidopyridin-2-yl}acetyl)amino] benzoic acid]",711
18,"O=C(Cc1ccc(-c2cc(Cl)ccc2C(F)F)c[n+]1[O-])Nc1ccc(C(=O)O)cc1 [Example 13, 4-[({5-[5-chloro-2-(difluoromethyl)phenyl]-1-oxidopyridin-2-yl}acetyl)amino] benzoic acid]",388
19,"O=C(O)c1ccc(NC(=O)[C@H](Cc2ccccc2)c2ccc(-c3cc(Cl)ccc3-c3cnco3)c[n+]2[O-])cc1 [Example 21, 4-{[(2R)-2-{5-[5-chloro-2-(1,3-oxazol-5-yl)phenyl]-1-oxidopyridin-2-yl}-3-phenylpropanoyl]amino} benzoic acid]",0.52
20,"O=C(O)c1ccc(NC(=O)[C@@H](Cc2ccccc2)c2ccc(-c3cc(Cl)ccc3-c3cnco3)c[n+]2[O-])cc1 [Example 22, 4-{[(2S)-2-{5-[5-chloro-2-(1,3-oxazol-5-yl)phenyl]-1-oxidopyridin-2-yl}-3-phenylpropanoyl]amino} benzoic acid]",364
21,"Cc1c(-c2c(F)ccc(Cl)c2F)ccc(C(Cc2ccccc2)C(=O)Nc2ccc(C(=O)O)cc2)[n+]1[O-] (stereo not shown) [Example 26, 6-(1-((4-carboxyphenyl)amino)-1-oxo-3-phenylpropan-2-yl)-3-(3-chloro-2,6-difluorophenyl)-2-methylpyridine 1-oxide]",693

# Biological target: purified Human plasma kallikrein (Homo sapiens (Human), UniProt P03952)
# Test: Kallikrein Assay
# Assay type: biochemical
# Conditions: purified Human plasma kallikrein 0.5 nM, substrate Acetyl-K-P-R-AFC, pH 7.4; read-out: P. KLK IC50
# Experimental: The effectiveness of a compound of the present invention as an inhibitor of Kallikrein can be determined using a relevant purified serine protease, and an appropriate synthetic substrate. The rate of hydrolysis of the chromogenic or fluorogenic substrate by the relevant serine protease was measured both in the absence and presence of compounds of the present invention. Assays were conducted at room temperature or at 37° C. […] A decrease in the rate of fluorescence change in the presence of inhibitor is indicative of enzyme inhibition. Such methods are known to one skilled in the art. The results of this assay are expressed as the inhibitory constant, Ki.
# Kallikrein determinations were made in 50 mM HEPES buffer at pH 7.4 containing 150 mM NaCl, 5 mM CaCl2, and 0.1% PEG 8000 (polyethylene glycol; Fisher Scientific). Determinations were made using purified Human plasma kallikrein at a final concentration of 0.5 nM (Enzyme Research Laboratories) and the synthetic substrate, Acetyl-K-P-R-AFC (Sigma # C6608) at a concentration of […].
# Activity assays were performed by diluting a stock solution of substrate at least tenfold to a final concentration ≦0.2 Km into a solution containing enzyme or enzyme equilibrated with inhibitor. Times required to achieve equilibration between enzyme and inhibitor were determined in control experiments. The reactions were performed under linear progress curve conditions and fluorescence increase measured at 405 Ex/510 Em nm. Values were converted to percent inhibition of the control reaction (after subtracting 100% Inhibition value). IC50 was determined by inflection point from a four parameter logistic curve fit. Ki was calculated using the Cheng Prusoff equation, Ki=IC50/(1+([S]/Km)).
# Sequence of purified Human plasma kallikrein (P03952 391-638): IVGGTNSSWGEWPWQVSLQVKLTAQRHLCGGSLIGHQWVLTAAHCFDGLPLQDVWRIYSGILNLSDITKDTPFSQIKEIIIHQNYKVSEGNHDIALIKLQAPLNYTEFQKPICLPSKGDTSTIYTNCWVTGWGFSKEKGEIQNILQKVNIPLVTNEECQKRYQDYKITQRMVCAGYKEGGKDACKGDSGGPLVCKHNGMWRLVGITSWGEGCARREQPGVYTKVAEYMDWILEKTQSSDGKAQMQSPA
# Sequence of purified Human plasma kallikrein (P03952 20-390 partner): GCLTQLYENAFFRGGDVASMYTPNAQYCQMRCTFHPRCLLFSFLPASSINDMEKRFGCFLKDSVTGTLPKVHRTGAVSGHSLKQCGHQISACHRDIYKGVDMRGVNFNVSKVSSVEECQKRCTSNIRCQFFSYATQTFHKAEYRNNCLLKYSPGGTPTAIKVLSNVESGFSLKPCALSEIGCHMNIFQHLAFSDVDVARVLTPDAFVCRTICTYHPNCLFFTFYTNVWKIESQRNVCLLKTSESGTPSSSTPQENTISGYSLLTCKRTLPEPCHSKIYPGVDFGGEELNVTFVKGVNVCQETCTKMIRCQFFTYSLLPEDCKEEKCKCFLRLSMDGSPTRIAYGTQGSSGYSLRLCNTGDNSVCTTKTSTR
row,Structure (SMILES),IC50 [nM]
1,"O=C(O)c1ccc(NC(=O)C(CC2CC2)c2ccc(-c3cc(Cl)ccc3-n3cc(C(F)F)nn3)c[n+]2[O-])cc1 (racemic) [Example 41, 4-{[2-(5-{5-chloro-2-[4-(difluoromethyl)-1H-1,2,3-triazol-1-yl]phenyl}-1-oxidopyridin-2-yl)-3-cyclopropylpropanoyl]amino}benzoic acid]",363
